Data from US5424325A, “Aminoketone derivatives” (Mitsubishi Kasei Corporation, priority 1992, dated 1995).

Key:
[1] = tested on: microtubule-associated protein; conditions: after the brain ischemia; cited from earlier work
[2] = biological target: T1, m-calpain (Rattus norvegicus, UniProt Q07009); experiment: Measurement of inhibitory activity against thiol protease (m-calpain purified from rat brain); assay type: biochemical; conditions: m-calpain purified from a brain of rat
T1 construct: m-calpain was purified from a brain of rat; from tissue; host or cells: rat brain
T1 sequence (Q07009 20-700 limits assumed): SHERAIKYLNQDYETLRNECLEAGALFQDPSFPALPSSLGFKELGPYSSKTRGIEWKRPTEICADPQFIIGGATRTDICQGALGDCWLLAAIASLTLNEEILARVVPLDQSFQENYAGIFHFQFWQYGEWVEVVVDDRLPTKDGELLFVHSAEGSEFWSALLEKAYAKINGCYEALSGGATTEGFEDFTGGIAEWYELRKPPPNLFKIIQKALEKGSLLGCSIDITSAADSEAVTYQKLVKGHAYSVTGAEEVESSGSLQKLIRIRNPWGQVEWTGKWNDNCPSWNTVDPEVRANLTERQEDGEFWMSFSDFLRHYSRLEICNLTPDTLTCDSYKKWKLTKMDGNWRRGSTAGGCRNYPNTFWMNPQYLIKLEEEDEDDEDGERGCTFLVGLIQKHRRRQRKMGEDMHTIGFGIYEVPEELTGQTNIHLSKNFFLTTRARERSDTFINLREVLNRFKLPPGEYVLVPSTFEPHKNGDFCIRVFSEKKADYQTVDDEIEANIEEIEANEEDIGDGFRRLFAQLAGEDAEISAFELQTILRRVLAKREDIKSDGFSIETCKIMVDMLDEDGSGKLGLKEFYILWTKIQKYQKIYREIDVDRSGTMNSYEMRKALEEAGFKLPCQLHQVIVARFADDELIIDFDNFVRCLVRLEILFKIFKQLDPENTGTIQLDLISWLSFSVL
T1 sequence (Q64537 1-270 partner): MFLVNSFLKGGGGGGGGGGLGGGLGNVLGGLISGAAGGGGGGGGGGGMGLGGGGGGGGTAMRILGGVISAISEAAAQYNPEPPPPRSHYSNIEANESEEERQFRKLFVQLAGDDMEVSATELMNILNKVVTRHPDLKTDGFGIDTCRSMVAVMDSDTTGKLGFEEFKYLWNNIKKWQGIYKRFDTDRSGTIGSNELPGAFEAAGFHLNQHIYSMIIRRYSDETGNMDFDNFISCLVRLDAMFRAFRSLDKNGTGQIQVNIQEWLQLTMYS
Description: Measurement of Inhibitory Activity against Thiol Protease
Through the known method disclosed in Journal of Biological Chemistry, vol. 259, page 3210, 1984, m-calpain was purified from a brain of rat. The inhibitory activity against it was measured and determined according to the method disclosed in Journal of Biological Chemistry, vol. 259, page 12489, 1984.

[3] = tested on: brain trauma models of rat; conditions: cited from earlier work

## CC(C)CCNC(=O)[C@H](CC(C)C)NC(=O)[C@H]1O[C@@H]1C(=O)O [E-64-C]
[1]
  degradation of microtubule-associated protein: inhibits the degradation of microtubule-associated protein after the brain ischemia

## CCCC[C@H](NC(=O)COc1ccccc1)C(=O)CSCc1ccsc1 [17 (No. 86), (S)-3-phenoxyacetylamino-1-(3-thienylmethylthio)-2-heptanone]
[2]
  IC50: 12.2 µM

## COc1cccc(OCC(=O)N[C@@H](Cc2ccccc2)C(=O)CSCc2ccsc2)c1 [58 (No. 216), (S)-3-(3-methoxyphenoxyacetylamino)-4-phenyl-1-(3-thienylmethylthio)-2-butanone]
[2]
  IC50: 4.5 µM

## CC(=O)N[C@@H](CC(C)C)C(=O)N[C@@H](CC(C)C)C(=O)N[C@H](C=O)CCCNC(=N)N [leupeptin]
[3]
  protection of axon: can protect axon

## CCCC[C@H](NC(=O)COc1cccc(OC)c1)C(=O)CSCc1ccsc1 [18 (No. 87), (S)-3-(3-methoxyphenoxyacetylamino)-1-(3-thienylmethylthio)-2-heptanone]
[2]
  IC50: 13 µM

## COc1ccc(/C=C/C(=O)N[C@@H](Cc2ccccc2)C(=O)CSCc2ccsc2)c(OC)c1 [60 (No. 219), (S)-3-(2,4-dimethoxycinnamoylamino)-4-phenyl-1-(3-thienylmethylthio)-2-butanone]
[2]
  IC50: 14.5 µM

## O=C(COc1ccccc1)N[C@@H](Cc1ccccc1)C(=O)CSCc1ccco1 [38 (No. 171), (S)-1-furfurylthio-3-phenoxyacetylamino-4-phenyl-2-butanone]
[2]
  IC50: 17 µM
